Assay results as given in patent US20070218030A1, “Dietetic Preparation for Prevention and Treatment of Osteoporosis” (priority 2003, published 2007).

System: ovarectomised female rats
Assay: experimental osteoporosis in ovarectomised female rats, oral administration
Assay type: in vivo
Conditions: for symptoms of osteoporosis: female rats after surgically removed ovaries, administered orally, not yet published experimental results
Method: An experiment was carried out on ovarectomised female rats in which an experimental osteoporosis was induced.

[1] = ovarectomised female rats with induced experimental osteoporosis, oral, molecular weight over 500 000 g/mol, dosage 150 to 4500 μg/kg

Row | Substance | symptoms of osteoporosis | bone density [1] | excretion of the metabolite of bone matrix breakdown into urine [1]
1 | calcium hyaluronate | able to suppress symptoms of osteoporosis |  | 
2 | sodium hyaluronate | able to suppress symptoms of osteoporosis | normalisation of bone density | returned to normal
